Measured values: ChEMBL document CHEMBL1127385, “Synthesis and diuretic activity of alkyl- and arylguanidine analogs of N,N'-dicyclohexyl-4-morpholinecarboxamidine in rats and dogs” (J Med Chem, 1994)

Tests used:
Canis familiaris [1] = test: Total electrolytic excretion of sodium in urine of dogs after intravenous administration of 7.85 uM/Kg of drug; type: ADME, organism-based, Canis lupus familiaris; details: dog, in vivo
Rattus norvegicus [2] = test: Total electrolytic excretion of potassium in urine of rats after peroral administration of 289 uM/Kg of drug; type: ADME, organism-based; details: in vivo, po
Rattus norvegicus [3] = test: Total electrolytic excretion of chlorine in urine of rats after peroral administration of 289 uM/Kg of drug; type: ADME, organism-based; details: in vivo, po
Canis familiaris [4] = test: Total electrolytic excretion of potassium in urine of dogs after intravenous administration of 7.85 uM/Kg of drug; type: ADME, organism-based, Canis lupus familiaris; details: dog, in vivo
Rattus norvegicus [5] = test: Total electrolytic excretion of sodium in urine of rats after peroral administration of 289 uM/Kg of drug; type: ADME, organism-based; details: in vivo, po
Canis familiaris [6] = test: Tested for the diuretic activity by measuring the urinary volume after intravenous administering 7.85 uM/Kg of drug in dogs; type: ADME, organism-based, Canis lupus familiaris, Urine; details: dog, in vivo
Canis familiaris [7] = test: Total electrolytic excretion of chlorine in urine of dogs after intravenous administration of 52.4 uM/Kg of drug; type: ADME, organism-based, Canis lupus familiaris; details: dog, in vivo
Canis familiaris [8] = test: Total electrolytic excretion of sodium in urine of dogs after intravenous administration of 52.4 uM/Kg of drug; type: ADME, organism-based, Canis lupus familiaris; details: dog, in vivo
Rattus norvegicus [9] = test: Tested for the diuretic activity by measuring the urinary volume after peroral administering 289 uM/Kg of drug in rats; type: ADME, organism-based, Urine; details: in vivo, po
Canis familiaris [10] = test: Total electrolytic excretion of sodium in urine of dogs after intravenous administration of 26.2 uM/Kg of drug; type: ADME, organism-based, Canis lupus familiaris; details: dog, in vivo
Canis familiaris [11] = test: Tested for the diuretic activity by measuring the urinary volume after intravenous administering 52.4 uM/Kg of drug in dogs; type: ADME, organism-based, Canis lupus familiaris, Urine; details: dog, in vivo
Rattus norvegicus [12] = test: Ratio of Total electrolytic excretion of sodium and potassium in urine of rats after peroral administration of 86.7 uM/Kg of drug; type: ADME, organism-based; details: in vivo, po
Canis familiaris [13] = test: Total electrolytic excretion of potassium in urine of dogs after intravenous administration of 52.4 uM/Kg of drug; type: ADME, organism-based, Canis lupus familiaris; details: dog, in vivo
Canis familiaris [14] = test: Total electrolytic excretion of potassium in urine of dogs after intravenous administration of 26.2 uM/Kg of drug; type: ADME, organism-based, Canis lupus familiaris; details: dog, in vivo
Rattus norvegicus [15] = test: Total electrolytic excretion of sodium in urine of rats after peroral administration of 28.9 uM/Kg of drug; type: ADME, organism-based; details: in vivo, po
Rattus norvegicus [16] = test: Total electrolytic excretion of sodium in urine of rats after peroral administration of 86.7 uM/Kg of drug; type: ADME, organism-based; details: in vivo, po
Rattus norvegicus [17] = test: Tested for the diuretic activity by measuring the urinary volume after peroral administering 86.7 uM/Kg of drug in rats; type: ADME, organism-based, Urine; details: in vivo, po
Rattus norvegicus [18] = test: Tested for the diuretic activity by measuring the urinary volume after peroral administering 28.9 uM/Kg of drug in rats; type: ADME, organism-based, Urine; details: in vivo, po
Rattus norvegicus [19] = test: Total electrolytic excretion of potassium in urine of rats after peroral administration of 86.7 uM/Kg of drug; type: ADME, organism-based; details: in vivo, po
Canis familiaris [20] = test: Total electrolytic excretion of chlorine in urine of dogs after intravenous administration of 26.2 uM/Kg of drug; type: ADME, organism-based, Canis lupus familiaris; details: dog, in vivo
Rattus norvegicus [21] = test: Ratio of Total electrolytic excretion of sodium and potassium in urine of rats after intravenous administration of 26.2 uM/Kg of drug; type: ADME, organism-based; details: in vivo
Canis familiaris [22] = test: Tested for the diuretic activity by measuring the urinary volume after intravenous administering 26.2 uM/Kg of drug in dogs; type: ADME, organism-based, Canis lupus familiaris, Urine; details: dog, in vivo
Rattus norvegicus [23] = test: Ratio of Total electrolytic excretion of sodium and potassium in urine of rats after intravenous administration of 52.4 uM/Kg of drug; type: ADME, organism-based; details: in vivo
Canis familiaris [24] = test: Total electrolytic excretion of chlorine in urine of dogs after intravenous administration of 7.85 uM/Kg of drug; type: ADME, organism-based, Canis lupus familiaris; details: dog, in vivo
Rattus norvegicus [25] = test: Total electrolytic excretion of potassium in urine of rats after peroral administration of 28.9 uM/Kg of drug; type: ADME, organism-based; details: in vivo, po
Canis familiaris [26] = test: Ratio of mean of 5 hr urinary excretion of Na+ and K+ from dogs at 7.85 umol/kg (iv); type: ADME, organism-based, Canis lupus familiaris, Urine; details: dog, in vivo
Rattus norvegicus [27] = test: Total electrolytic excretion of chlorine in urine of rats after peroral administration of 86.7 uM/Kg of drug; type: ADME, organism-based; details: in vivo, po
Rattus norvegicus [28] = test: Ratio of Total electrolytic excretion of sodium and potassium in urine of rats after peroral administration of 28.9 uM/Kg of drug; type: ADME, organism-based; details: in vivo, po
Rattus norvegicus [29] = test: Ratio of Total electrolytic excretion of sodium and potassium in urine of rats after peroral administration of 289 uM/Kg of drug; type: ADME, organism-based; details: in vivo, po
Rattus norvegicus [30] = test: Total electrolytic excretion of chlorine in urine of rats after peroral administration of 28.9 uM/Kg of drug; type: ADME, organism-based; details: in vivo, po
Rattus norvegicus [31] = test: Tested for the diuretic activity by measuring the urinary volume after peroral administering 324 uM/Kg of drug in rats; type: ADME, organism-based, Urine; details: in vivo, po
Rattus norvegicus [32] = test: Total electrolytic excretion of chlorine in urine of rats after peroral administration of 324 uM/Kg of drug; type: ADME, organism-based; details: in vivo, po
Rattus norvegicus [33] = test: Ratio of Total electrolytic excretion of sodium and potassium in urine of rats after peroral administration of 324 uM/Kg of drug; type: ADME, organism-based; details: in vivo, po
Rattus norvegicus [34] = test: Total electrolytic excretion of chlorine in urine of rats after peroral administration of 97.1 uM/Kg of drug; type: ADME, organism-based; details: in vivo, po
Rattus norvegicus [35] = test: Ratio of Total electrolytic excretion of sodium and potassium in urine of rats after intravenous administration of 70.6 uM/Kg of drug; type: ADME, organism-based; details: in vivo
Rattus norvegicus [36] = test: Total electrolytic excretion of sodium in urine of rats after peroral administration of 97.1 uM/Kg of drug; type: ADME, organism-based; details: in vivo, po
Rattus norvegicus [37] = test: Total electrolytic excretion of chlorine in urine of rats after peroral administration of 32.4 uM/Kg of drug; type: ADME, organism-based; details: in vivo, po
Rattus norvegicus [38] = test: Ratio of Total electrolytic excretion of sodium and potassium in urine of rats after intravenous administration of 23.5 uM/Kg of drug; type: ADME, organism-based; details: in vivo
Rattus norvegicus [39] = test: Total electrolytic excretion of potassium in urine of rats after peroral administration of 32.4 uM/Kg of drug; type: ADME, organism-based; details: in vivo, po
Rattus norvegicus [40] = test: Total electrolytic excretion of sodium in urine of rats after peroral administration of 324 uM/Kg of drug; type: ADME, organism-based; details: in vivo, po
Rattus norvegicus [41] = test: Total electrolytic excretion of potassium in urine of rats after peroral administration of 97.1 uM/Kg of drug; type: ADME, organism-based; details: in vivo, po
Rattus norvegicus [42] = test: Ratio of Total electrolytic excretion of sodium and potassium in urine of rats after peroral administration of 97.1 uM/Kg of drug; type: ADME, organism-based; details: in vivo, po
Rattus norvegicus [43] = test: Ratio of Total electrolytic excretion of sodium and potassium in urine of rats after peroral administration of 32.4 uM/Kg of drug; type: ADME, organism-based; details: in vivo, po
Rattus norvegicus [44] = test: Total electrolytic excretion of potassium in urine of rats after peroral administration of 324 uM/Kg of drug; type: ADME, organism-based; details: in vivo, po
Rattus norvegicus [45] = test: Tested for the diuretic activity by measuring the urinary volume after peroral administering 32.4 uM/Kg of drug in rats; type: ADME, organism-based, Urine; details: in vivo, po
Rattus norvegicus [46] = test: Tested for the diuretic activity by measuring the urinary volume after peroral administering 97.1 uM/Kg of drug in rats; type: ADME, organism-based, Urine; details: in vivo, po
Rattus norvegicus [47] = test: Total electrolytic excretion of sodium in urine of rats after peroral administration of 32.4 uM/Kg of drug; type: ADME, organism-based; details: in vivo, po

C1CCC(/N=C(\NC23CC4CC(CC(C4)C2)C3)N2CCOCC2)CC1
Excretion Na+ (Canis familiaris [1]): 8.4 m equiv
Excretion K+ (Rattus norvegicus [2]): 0.24 m equiv
Excretion Cl- (Rattus norvegicus [3]): 1.82 m equiv
Excretion K+ (Canis familiaris [4]): 1.4 m equiv
Excretion Na+ (Rattus norvegicus [5]): 1.86 m equiv
V (Canis familiaris [6]): 62 mL
Excretion Cl- (Canis familiaris [7]): 28.8 m equiv
Excretion Na+ (Canis familiaris [8]): 36 m equiv
V (Rattus norvegicus [9]): 11.3 mL
Excretion Na+ (Canis familiaris [10]): 27.9 m equiv
V (Canis familiaris [11]): 218 mL
Ratio (Rattus norvegicus [12]): 6.6
Excretion K+ (Canis familiaris [13]): 3.3 m equiv
Excretion K+ (Canis familiaris [14]): 2.3 m equiv
Excretion Na+ (Rattus norvegicus [15]): 1 m equiv
Excretion Na+ (Rattus norvegicus [16]): 1.58 m equiv
V (Rattus norvegicus [17]): 9.9 mL
V (Rattus norvegicus [18]): 5.5 mL
Excretion K+ (Rattus norvegicus [19]): 0.24 m equiv
Excretion Cl- (Canis familiaris [20]): 22.4 m equiv
Ratio (Rattus norvegicus [21]): 15.3
V (Canis familiaris [22]): 197 mL
Ratio (Rattus norvegicus [23]): 12
Excretion Cl- (Canis familiaris [24]): 7 m equiv
Excretion K+ (Rattus norvegicus [25]): 0.24 m equiv
Ratio (Canis familiaris [26]): 8.8
Excretion Cl- (Rattus norvegicus [27]): 1.54 m equiv
Ratio (Rattus norvegicus [28]): 4.2
Ratio (Rattus norvegicus [29]): 7.9
Excretion Cl- (Rattus norvegicus [30]): 0.97 m equiv

c1ccc(C/N=C(/NCc2ccccc2)N2CCOCC2)cc1
V (Rattus norvegicus [31]): 13.8 mL
Excretion Cl- (Rattus norvegicus [32]): 1.94 m equiv
Ratio (Rattus norvegicus [33]): 5.4
Excretion Cl- (Rattus norvegicus [34]): 1.14 m equiv
Ratio (Rattus norvegicus [35]): 29.5
Excretion Na+ (Rattus norvegicus [36]): 1.13 m equiv
Excretion Cl- (Rattus norvegicus [37]): 0.86 m equiv
Ratio (Rattus norvegicus [38]): 16.4
Excretion K+ (Rattus norvegicus [39]): 0.33 m equiv
Excretion Na+ (Rattus norvegicus [40]): 2.25 m equiv
Excretion K+ (Rattus norvegicus [41]): 0.31 m equiv
Ratio (Rattus norvegicus [42]): 3.6
Ratio (Rattus norvegicus [43]): 2.4
Excretion K+ (Rattus norvegicus [44]): 0.42 m equiv
V (Rattus norvegicus [45]): 5.4 mL
V (Rattus norvegicus [46]): 7.3 mL
Excretion Na+ (Rattus norvegicus [47]): 0.77 m equiv
